Data on five molecules can be found in patent US8912224B2, “Substituted 2-(chroman-6-yloxy)-thiazoles and their use as pharmaceuticals” (Sanofi, priority 2011, dated 2014).

The subject of assay [1] is Sprague-Dawley rats. The experiment in a line: In vivo method for determining the effect on heart contractility (left ventricular dp/dtmax) in anesthetized rats. The note with it: rat, versus solvent control; for Contractility increase (%): i.v. infusion. As for the experimental part: B) In vivo Method for Determining the Effect on Heart Contractility Adult male Sprague-Dawley rats (Harlan […], Germany) weighing 340 to 370 g were anesthetized with pentobarbital (100 mg/kg i.p.) and ventilated with a mixture of oxygen (40%) and room air (60%) at a tidal volume of 1 ml/100 g at 60 breaths/min. Body temperature was maintained at 36.5±0.3° C. with a heating lamp and was monitored with a rectal thermo sensor. Systemic blood pressure was measured in the left carotid artery using a pressure transducer (Combitrans; B. Braun Melsungen AG, Melsungen, Germany) connected to a DC-bridge-amplifier (PLUGSYS/ADC Type 663; Harvard Apparatus GmbH, March-Hugstetten, Germany). The electrocardiogram was measured as lead II via subcutaneously placed electrodes connected to a Heart-Rate-Module ([…] Type 669; Harvard Apparatus GmbH, March-Hugstetten, Germany). A micro-tip catheter (2 French, SPR-320; Millar Instruments, Houston, Tex., USA) was placed via the right carotid artery into the left ventricle, and the left ventricular pressure (LVP) and the end diastolic pressure (EDP) were continuously measured. Registration of the hemodynamic data was performed via an analog digital converter by a personal computer using Notocord software (HEM version 3.5). Left ventricular contractility (dp/dtmax) and relaxation (dp/dtmin) were calculated from the LVP signal. For intravenous administration of the test compounds, the left jugular vein was prepared and a PP-50 catheter was inserted. Test compounds were administered either by intravenous bolus injection or by intravenous infusion by means of an infusion pump (Unita; B. Braun Melsungen AG, Melsungen, Germany). […] In a typical experiment, several dosages of the test compound were administered subsequently at increasing doses. Statistical significance of the data obtained with drug vs control experiments, in which solvent was administered, was evaluated with the 2-sided ANOVA test (program Everstat). Increases in left ventricular contractility (percent increase) by example compounds are given in Table 3 in comparison to control experiments in which solvent was administered.

Assay [2] concerns the target T1, human NCX1 (Homo sapiens (Human), UniProt P32418). Briefly: Inhibition of Ca2+ efflux out of cells (NCX1 forward mode), FLIPR assay. It is filed as cell-based. To be noted: CHO cells stably expressing human NCX1, Ionomycin 2 μM, read-out: NCX1fw IC50. From the text: (§1) The sodium/calcium exchanger NCX1 can transport calcium ions and sodium ions through the cell membrane. The transport is an exchange of Ca^2+and Na^+in two directions depending on membrane potential and ion gradients. At the first direction, named “forward mode” or “calcium export mode”, Ca^2+is transported out of the cell and Na^+ is transported into the cell. At the other direction, named “reverse mode” or “calcium import mode”, the transport directions are vice versa. The effect of the compounds of the invention on NCX1 was determined in CHO cells stably expressing human NCX1 (gene symbol SLC8A1; cf. WO 2009/115238). The assay is based on the monitoring of intracellular Ca^2+concentrations using a calcium-sensitive fluorescence dye which is detected by means of a FLIPR device (Fluorimetric Imaging Plate Reader, Molecular Devices).
Assay Technology—Forward Mode
The assay is based on the monitoring of intracellular Ca^2+concentrations using the PBX Calcium Assay Kit from BD (Becton, Dickinson and Company) with calcium indicator dye 51-9000177BKa (BD, 640177), CHO cells expressing NCX1 were loaded with the dye, and after a preincubation period with the test compound, lonomycin (Calbiochem, 407950) was added. Ionomycin is an ionophor for Ca^2+ions mediating an increase of intracellular Ca^2+ions. Consequently, intracellular Ca^2+ions are exchanged against extracellular Na^+ions (Ca^2+efflux, forward mode). The decrease of intracellular Ca^2+ions was detected by measuring the fluorescence of the calcium indicator dye at a wavelength of 520 nm by a FLIPR device.
Briefly, similarly as for the reverse mode, for the forward mode transport assay 18000 cells per well were seeded into a 96 well microplate (Corning COSTAR 3904) and incubated overnight in culture medium (cf. above). A total volume of 100 μl medium per well was used. For the preparation of the FLIPR assay, the culture medium was removed from the plates and 100 μl of assay buffer (133.8 mM NaCl (Sigma, S5886); 4.7 mM KCl (Sigma, P3911); 1.25 mM MgCl2 (Merck, 1.05833.0250); 3.5 mM CaCl2 (Merck, 1.02083.0250); 5 mM glucose (Sigma. G7021); 10 mM Hepes (Sigma, H4034); pH 7.4)) were added to each well in a washing step. Assay buffer was removed, and 100 μl of a solution of the test compound in assay buffer in different concentrations were added into the wells. Further, 100 μl of dye solution (0.09% (v/v) calcium indicator dye, 9.1% (v/v) signal enhancer (from PBX Calcium Assay Kit); in assay buffer) were added into each well. The plates were incubated in the dark at room temperature for 60 min. Meanwhile a 10 μM solution of lonomycin in assay buffer (additionally containing 0.05% fetal calf serum (cf. above); 4° C.) was prepared and stored in the wells of a 96 well microplate (96 well microplate, polypropylene, U-shape (Greiner Bio-One, 650201)). The fluorescence monitoring was performed at 60 measuring points with measurement intervals of 2 sec. After the fifth measuring point, 50 μl of the lonomycin solution were added to each well of the assay plate to give a final lonomycin concentration of 2 μM. For the determination of the IC50 values the minimal fluorescence value was subtracted from the maximal fluorescence value for the fifteenth to fifty-fifth measuring points. The calculation of the IC50 values via the percentage inhibitions of Ca^2+efflux out of cells (forward mode) effected by the test compound was performed in Biost@t Speed 2.0. “NCX1fw IC50” in Table 2 means the IC50 value for inhibition of NCX1 in forward mode (in μM (micromol/liter)).

In assay [3] the target is T1, human NCX1. Briefly: Inhibition of Ca2+ influx into cells (NCX1 reverse mode), FLIPR Fluo-4 assay. The format is cell-based. To be noted: inhibition of NCX1 in reverse mode (Ca2+ influx into cells); read-out: NCX1rv IC50.
Source text: as §1
Assay Technology—Reverse Mode
The assay is based on the monitoring of intracellular Ca^2+concentrations using the calcium-sensitive dye Fluo-4. CHO cells expressing NCX1 were loaded with the dye by means of the acetoxymethyl ester Fluo-4 AM (Invitrogen, F14202), which is cleaved intracellularly by esterase activity to yield the charged species of free Fluo-4. After an preincubation period with the test compound, Gramicidine (Sigma, G5002) was added. Gramicidine is an ionophor for Na^+ions mediating an increase of intracellular Na^+ions. Consequently, intracellular Na^+ions are exchanged against extracellular Ca^2+ions (Ca^2+influx, reverse mode). The intracellular elevation of Ca^2+ ions was detected by measuring the fluorescence of Fluo-4 at a wavelength of 520 nm by a FLIPR device.
Briefly, for the reverse mode transport assay 18000 cells per well were seeded into a 96 well microplate (Corning COSTAR 3904) and incubated overnight in culture medium (1× Nut Mix F12 (Ham) (Gibco, 21765-029); 10% (v/v) fetal calf serum (PAA Gold, A15-649); 450 μg/ml Geneticin (Gibco, 10131-027)). A total volume of 100 μl medium per well was used. For the preparation of the FLIPR assay, the culture medium was removed from the plates and 100 μl of dye solution (2 μM Fluo-4 AM; 0.02% (v/v) Pluronic F-127 (20%, Invitrogen, P3000MP); 0.1% (v/v) bovine albumin solution (30% (v/v), Sigma, A9205) in assay buffer (133.8 mM NaCl (Sigma, S5886); 4.7 mM KCl (Sigma, P3911); 1.25 mM MgCl2 (Merck, 1.05833.0250); 3.5 mM CaCl2 (Merck, 1.02083.0250); 5 mM glucose (Sigma, G7021); 10 mM Hepes (Sigma, H4034); 0.01% (v/v) Pluronic F-127 (5%, Sigma, P2443); 2.5 mM Probenecid (Maybridge, SB00915EB); pH 7.4)) were added into each well. The plates were incubated in the dark at room temperature for 80 min. After the incubation period, the dye solution was removed and the wells were washed with 100 μl of assay buffer. Then 80 μl of a solution of the test compound in assay buffer in different concentrations were added into the wells. The plates were incubated at 16° C. for 45 min. Meanwhile a 60 μM solution of Gramicidine in assay buffer (4° C.) was prepared and stored in the wells of a 96 well microplate (96 well microplate, polypropylene, U-shape (Greiner Bio-One, 650201)) at 4° C. until measurement was started. The fluorescence monitoring was performed at 240 measuring points with measurement intervals of 2 sec. After the fifth measuring point, 40 μl of the Gramicidine solution were added to each well of the assay plates to give a final Gramicidine concentration of 20 μM. For the determination of the IC50 values the minimal fluorescence value was subtracted from the maximal fluorescence value for all measuring points. The calculation of the IC50 values via the percentage inhibitions of Ca^2+influx into cells (reverse mode) effected by the test compound was performed in Biost@t Speed 2.0.

T1 sequence (P32418 whole entry, looked up): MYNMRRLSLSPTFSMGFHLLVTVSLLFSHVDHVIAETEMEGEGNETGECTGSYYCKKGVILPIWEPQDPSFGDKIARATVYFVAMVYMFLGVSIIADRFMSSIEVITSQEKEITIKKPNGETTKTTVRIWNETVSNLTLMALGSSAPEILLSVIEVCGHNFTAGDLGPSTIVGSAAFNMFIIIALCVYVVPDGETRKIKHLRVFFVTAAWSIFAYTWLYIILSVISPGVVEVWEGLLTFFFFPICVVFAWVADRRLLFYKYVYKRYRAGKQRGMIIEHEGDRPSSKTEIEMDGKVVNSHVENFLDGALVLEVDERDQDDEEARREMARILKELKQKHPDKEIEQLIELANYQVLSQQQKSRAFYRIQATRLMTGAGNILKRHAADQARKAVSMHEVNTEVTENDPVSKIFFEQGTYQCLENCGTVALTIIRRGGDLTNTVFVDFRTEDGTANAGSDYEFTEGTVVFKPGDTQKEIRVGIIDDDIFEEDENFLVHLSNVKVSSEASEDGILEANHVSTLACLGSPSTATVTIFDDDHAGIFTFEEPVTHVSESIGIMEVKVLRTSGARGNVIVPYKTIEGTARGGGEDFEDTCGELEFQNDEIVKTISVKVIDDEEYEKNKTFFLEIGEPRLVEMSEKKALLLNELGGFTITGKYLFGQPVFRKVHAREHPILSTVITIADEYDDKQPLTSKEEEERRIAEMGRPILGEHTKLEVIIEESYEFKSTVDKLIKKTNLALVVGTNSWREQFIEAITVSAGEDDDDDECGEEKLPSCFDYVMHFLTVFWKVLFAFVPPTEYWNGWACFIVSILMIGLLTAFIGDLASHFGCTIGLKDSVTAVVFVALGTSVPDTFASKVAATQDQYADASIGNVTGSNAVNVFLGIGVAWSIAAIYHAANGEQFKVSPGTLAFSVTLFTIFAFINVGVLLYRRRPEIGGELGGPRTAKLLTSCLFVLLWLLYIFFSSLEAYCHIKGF

The IC50 is the point on the concentration scale where inhibition reaches its midpoint. Regarding `O=C(NC1CC1)c1cnc(Oc2ccc3c(c2)CCC(c2ccccc2)O3)s1` (stereo not drawn) [Example 315, 2-(2-Phenyl-chroman-6-yloxy)-thiazole-5-carboxylic acid cyclopropylamide], the change in vivo at 0.1 mg/kg in assay [1] (iv, i.v. bolus injection, 0.1 mg/kg, read-out: Contractility increase (%)) amounted to 28%. Moreover, the change in vivo at 0.3 mg/kg in assay [1] (iv, i.v. bolus injection, 0.3 mg/kg, read-out: Contractility increase (%)) is 41%. Moreover, the change in vivo at 1 mg/kg in assay [1] (iv, i.v. bolus injection, 1.0 mg/kg, read-out: Contractility increase (%)) is 64%. The IC50 in assay [2] came out at 3300 nM.

As to `Cc1csc(CCNCc2cnc(Oc3ccc4c(c3)CCC(c3ccccc3)O4)s2)n1` (stereo not drawn) [compound 151, [2-(4-Methyl-thiazol-2-yl)-ethyl]-[2-(2-phenyl-chroman-6-yloxy)-thiazol-5-ylmethy]-amine], the IC50 in assay [3] was determined as 400 nM.

For “2-[2-(2,6-Dimethyl-phenyl)-chroman-6-yloxy]-thiazole-5-carboxylic acid [2-(2-oxo-imidazolidin-1-yl)-ethyl]-amide [compound 347]”, the half-inhibitory concentration (IC50) in assay [3] stood at 1500 nM.

With `Cc1ccccc1[C@@H]1CCc2cc(Oc3ncc(C(=O)NCCOP(=O)([O-])[O-])s3)ccc2O1.[Na+].[Na+]` [Example 345, Phosphoric acid mono-(2-{[2-((S)-2-o-tolyl-chroman-6-yloxy)-thiazole-5-carbonyl]-amino}-ethyl)ester disodium salt], the results for the “Contractility increase (%)” value in assay [1] (0.03 mg/kg/min) and in assay [1] (0.1 mg/kg/min) were 32% and 85%, respectively.

Consider `CC[C@H](C)[C@H](NC(=O)c1cnc(Oc2ccc3c(c2)CCC(c2cccnc2)O3)s1)C(=O)O` (stereo partly drawn) [compound 270, (23,3S)-3-Methyl-2-{[2-(2-pyridin-3-yl-chroman-6-yloxy)-thiazole-5-carbonyl]-amino}-pentanoic acid], for which, in assay [3], the IC50 came to 12500 nM.
